Active and inactive are the calls of the source. No cut-off for these calls is given here.

The inhibition is how much of the control response was suppressed.

Experiment [1] has as its target Aldo-keto reductase family 1 member B1 (Rattus norvegicus) (UniProt P07943). The experiment can be described thus: Inhibition of Rattus norvegicus albino (rat) kidney aldose reductase using D-L-glyceraldehyde as substrate assessed as decrease in NADPH level measured for 5 min by spectrophotometric analysis.
Experiment [2] has as its system Liver. The experiment can be described thus: Antioxidant activity in Rattus norvegicus (rat) liver assessed as superoxide anion scavenging activity at 10^-3 to 10^-4 M. The experiment is classed as functional, tissue-based.
The test system of experiment [3] is Liver. The experiment in a line: Antioxidant activity in Rattus norvegicus (rat) liver assessed as DPPH free radical scavenging activity at 10^-3 to 10^-4 M. It is filed as functional, tissue-based.

For the molecule `Nc1ccc(-c2[nH]c3ccccc3c2C=O)cc1`, the inhibition result in experiment [1] was “inactive”. The outcome in the experiment with Liver [2] and in the experiment with Liver [3] was inactive.
Turning to `O=Cc1c(-c2ccc(Cl)cc2)[nH]c2ccccc12`, in experiment [1], the inhibition result is “inactive”. Further, the outcome with Liver [2] and in the experiment with Liver [3] was inactive.
As for `O=[N+]([O-])c1cc(-c2cc3ccccc3[nH]2)ccc1Cl`, the inhibition in experiment [1] amounted to 5.29%. Further, the result in the experiment with Liver [2] and in the experiment on Liver [3] was Active.
Take `O=Cc1c(-c2ccc(Cl)c([N+](=O)[O-])c2)[nH]c2ccccc12`: the inhibition entry in experiment [1] is “inactive”. In addition, the outcome in the experiment with Liver [2] and in the experiment on Liver [3] was inactive.
With `Fc1ccc(-c2cc3ccccc3[nH]2)cc1`, the inhibition result in experiment [1] is “inactive”. Moreover, the result with Liver [2] was Active. In addition, the result in the experiment with Liver [3] was inactive.
Take `Clc1ccc(-c2cc3ccccc3[nH]2)cc1`: the inhibition entry in experiment [1] was “inactive”. Moreover, the result in the experiment with Liver [2] was Active. Further, in the experiment on Liver [3], the result was inactive.
For `c1ccc(-c2cc3ccccc3[nH]2)cc1`, in experiment [1], the inhibition result is “inactive”. Further, the outcome in the experiment on Liver [2] and with Liver [3] was inactive.
For `Clc1ccc(-c2cc3ccccc3[nH]2)cc1Cl`, in experiment [1], the inhibition result is “inactive”. Besides, in the experiment with Liver [2], the outcome was Active. In the experiment on Liver [3], the outcome was inactive.
Turning to `Nc1ccc(-c2cc3ccccc3[nH]2)cc1`, the inhibition in experiment [1] was determined as 11%. For the same molecule, the outcome in the experiment on Liver [2] and in the experiment with Liver [3] was Active.
As to `O=[N+]([O-])c1cc([N+](=O)[O-])c2[nH]c(-c3ccccc3)cc2c1`, in experiment [1], the inhibition entry was “inactive”. The outcome in the experiment on Liver [2] and in the experiment with Liver [3] was Active.
On to `O=Cc1c(-c2ccc(F)cc2)[nH]c2ccccc12`, for which, in experiment [1], the inhibition result is “inactive”. Also, the result in the experiment on Liver [2] and with Liver [3] was inactive.
On to `O=Cc1c(-c2ccccc2)[nH]c2ccccc12`, for which the inhibition in experiment [1] turned out to be 7.64%. The outcome in the experiment with Liver [2] and in the experiment with Liver [3] was inactive.
